Reference: patent US20260242392A1, “ARYL TRICYCLIC STING AGONISTS AND USE THEREOF” (SHENZHEN GENUINE BIOTECHNOLOGY CO., LTD., priority 2023, published 2026)

Columns and labels:
[1] = target: T1, Sting-HAQ (Homo sapiens, UniProt Q86WV6, G230A/H232R/R293Q/R71H); assay: HEK293-HAQ Luc reporter gene assay (Steady-Glo luciferase); assay type: cell-based; details: 24 h incubation; read-out: HEK293-HAQ Luc Report Assay (24 h) EC50
T1 construct: host or cells: HEK293-HAQ Luc reporter cell line
Protocol: Test Principle: The HEK293-HAQ Luc reporter cell line utilizes the chemiluminescent reaction property of luciferase binding to its substrate beetle luciferin. The regulatory elements of the Sting-HAQ gene transcription are cloned upstream/downstream of the firefly luciferase gene to construct a luciferase recombinant plasmid. The recombinant plasmid is then transfected into HEK293 cells. After treatment with compounds, the cells are lysed, and the luciferase activity is measured using the Steady-Glo® detection system (Cat #E2550) manufactured by Promega Corporation. The effect of compounds on the Sting-HAQ regulatory elements is determined based on the level of luciferase activity. The Steady Glo® Luciferase Assay System enables high-throughput evaluation of the degree of activation of reporter cell lines by compounds through the activity of luciferase in mammalian cells, and provides long-term stable luminescence when used with reporter cell lines. The detection system can sustain a signal half-life of more than 5 hours in the test cell culture medium, enabling uniform measurement without sample pretreatment.
Test Method: Complete medium (DMEM+10% FBS+1% P/S) was prepared. The Hek293-HAQ Luc reporter cell line was resuscitated and passaged twice. Cells in logarithmic growth phase were collected by centrifugation, counted, and resuspended to an appropriate concentration. The cell suspension was seeded into a 96-well plate at a density of 20000 cells/well, with 100 µL of the cell suspension added per well. Test compounds were prepared into stock solutions with DMSO, and serially diluted 3-fold with DMSO starting from the highest concentration of 100 mM to obtain 9 concentration gradients. The test compounds were diluted 47.62-fold with culture medium, and 5 μL of each dilution was added to the 96-well plate containing 100 μL of cells. To Min control wells were added 5 μL of DMSO-cell culture medium mixture (with a final DMSO concentration of 0.1%), while Max control wells received 5 μL of a positive reference compound. The plate was incubated at 37° C. in an incubator with 5% carbon dioxide and relative humidity above 90% for 24 h. Subsequently, 75 μL/well of […] was added to terminate the reaction. After shaking at 305 rpm for 10 min, the plates were detected on Envision. The […] value RLU of each well was read, and the activation rate was calculated according to the formula: Activation %=(Sample−Ave_L)/(Ave_H−Ave_L)×100, where Ave_L: RLU Min (0.1% DMSO), Ave_H: RLU Max (positive reference compound). The activation rate, Activation % (Y), corresponding to each concentration (X), was entered in EXCEL. The half-maximal effective concentration EC50 value of each compound was calculated according to the built-in four-parameter fitting formula Y=Bottom+(Top−Bottom)/(1+10^((LogEC50−X)*HillSlope)) using the XLfit plug-in.

[2] = Pharmacokinetic (PK) study in ICR mice, IV and PO; details: for AUC(0-t) / Vd / clearance / half-life / Cmax / bioavailability: ICR, mouse, plasma
Protocol: The doses for IV and PO were 2 mg/kg and 5 mg/kg, respectively. Blood was collected at different time points after IV and PO administration and placed in heparinized tubes. Plasma was separated and frozen in a −20° C. refrigerator. Plasma was processed and then analyzed by LCMS/MS. Pharmacokinetic parameters of drug administration were calculated using a non-compartmental model in WinNonlin 8.2 software.

[3] = mouse PK, injection 2 mg/kg and oral 5 mg/kg

T1 sequence (Q86WV6 whole entry R71H/G230A/H232R/R293Q): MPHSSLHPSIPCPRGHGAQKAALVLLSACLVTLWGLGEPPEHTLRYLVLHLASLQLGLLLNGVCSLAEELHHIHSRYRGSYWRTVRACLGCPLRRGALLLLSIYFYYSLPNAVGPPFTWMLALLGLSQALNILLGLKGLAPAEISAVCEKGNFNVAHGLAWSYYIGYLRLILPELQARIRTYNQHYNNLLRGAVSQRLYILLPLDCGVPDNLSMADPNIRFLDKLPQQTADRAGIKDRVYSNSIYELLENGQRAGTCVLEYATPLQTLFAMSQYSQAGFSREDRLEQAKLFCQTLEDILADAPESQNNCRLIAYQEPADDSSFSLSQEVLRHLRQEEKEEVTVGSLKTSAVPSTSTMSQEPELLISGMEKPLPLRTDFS

Structure (SMILES)	EC50 [1] [µM]	further results
O=C(O)CCC(=O)c1cc2c(ccc3[nH]ncc32)s1	> 100	–
C[Si](C)(C)CCOCn1ncc2c3cc(C(=O)CCC(=O)O)sc3ccc21	> 100	–
C[Si](C)(C)CCOCn1cc2c(ccc3sc(C(=O)CCC(=O)O)cc32)n1	> 100	–
Cn1ncc2c3cc(C(=O)CCC(=O)O)sc3ccc21	> 100	–
Cn1cc2c(ccc3sc(C(=O)CCC(=O)O)cc32)n1	41.8	–
COc1cc2sc(C(=O)CCC(=O)O)cc2c2c1OCC2	7.87	–
COc1cc2sc(C(=O)CCC(=O)O)cc2c2c1OCCO2	> 100	–
COc1cc2sc(C(=O)CCC(=O)O)cc2c2nc(C(C)C)oc12	> 100	–
CCc1nc2c(o1)c(OC)cc1sc(C(=O)CCC(=O)O)cc12	36	–
COc1cc2sc(C(=O)CCC(=O)O)c(C)c2c2ncoc12	58	–
COc1cc2sc(C(=O)CC(C)C(=O)O)c(C)c2c2ncoc12 (centres unmarked)	92	–
COc1cc2sc(C(=O)CCC(=O)O)cc2c2nc(C3CC3)oc12	90.7	–
COc1cc2sc(C(=O)CCC(=O)O)cc2c2ccoc12	2.52	–
COc1cc2sc(C(=O)CC(C)C(=O)O)c(C)c2c2nc(N)oc12 (centres unmarked)	> 100	–
COc1cc2sc(C(=O)CCC(=O)O)c(C)c2c2ccoc12	29.8	–
COc1cc2sc(C(=O)CCC(=O)O)cc2c2cnn(C)c12	> 100	–
COc1cc2sc(C(=O)CCC(=O)O)cc2c2cc(C)oc12	1.04	–
COc1cc2sc(C(=O)CC(C)C(=O)O)cc2c2ccoc12 (centres unmarked)	2.2	–
COc1cc2sc(C(=O)CCC(=O)O)c(C)c2c2cc(C)oc12	19	–
COc1cc2sc(C(=O)CC(C)C(=O)O)cc2c2cc(C)oc12 (centres unmarked)	1.2	–
COc1cc2sc(C(=O)CCC(=O)O)c(C)c2c2nc(N)oc12	> 100	–
CCC(CC(=O)c1cc2c(cc(OC)c3ocnc32)s1)C(=O)O (centres unmarked)	0.308	–

Structure (SMILES)	EC50 [1] [µM]	further results
COc1cc2sc(C(=O)CCC(=O)O)cc2c2nc[nH]c12	> 100	–
COc1cc2sc(C(=O)CCC(=O)O)cc2c2c1ncn2C	> 100	–
COc1cc2sc(C(=O)CCC(=O)O)cc2c2ncn(C)c12	> 100	–
COc1cc2sc(C(=O)CCC(=O)O)cc2c2cn(C)nc12	49	–
COc1cc2sc(C(=O)CCC(=O)O)cc2c2cnoc12	> 100	–
COc1cc2sc(C(=O)CCC(=O)O)cc2c2nc(N)oc12	> 100	–
COc1cc2sc(C(=O)CCC(=O)O)cc2c2ccn(C)c12	> 100	–
COc1cc2sc(C(=O)CC(C)C(=O)O)cc2c2nc(N)oc12 (centres unmarked)	> 100	–
COc1cc2sc(C(=O)C[C@@H](C)C(=O)O)cc2c2ncoc12	5.81	–
COc1cc2sc(C(=O)CCC(=O)O)cc2c2c1CCC2	> 100	–
COc1cc2sc(C(=O)CCC(=O)O)cc2c2ocnc12	2.5	–
COc1cc2sc(C(=O)CCC(=O)O)cc2c2cc(F)oc12	0.792	–
CCC(CC(=O)c1cc2c(cc(OC)c3occc32)s1)C(=O)O (centres unmarked)	0.979	–
CCC(CC(=O)c1cc2c(cc(OC)c3oc(C)nc32)s1)C(=O)O (centres unmarked)	0.326	–
CCC(CC(=O)c1cc2c(cc(OC)c3oc(C)cc32)s1)C(=O)O (centres unmarked)	0.565	–
COc1cc2sc(C(=O)CCC(=O)O)cc2c2ccsc12	10.7	–
COc1cc2sc(C(=O)CC(C)C(=O)O)nc2c2nc(C)oc12 (centres unmarked)	3.32	–
COc1cc2sc(C(=O)CCC(=O)O)nc2c2nc(C)oc12	18	–
COc1cc2sc(C(=O)C(C)CC(=O)O)nc2c2nc(C)oc12 (centres unmarked)	59.9	–
CC[C@H](CC(=O)c1cc2c(cc(OC)c3oc(C)cc32)s1)C(=O)O	4.46	–
CC[C@@H](CC(=O)c1cc2c(cc(OC)c3oc(C)cc32)s1)C(=O)O	0.24	–
COc1cc2sc(C(=O)CC(C)C(=O)O)cc2c2cc(F)oc12 (centres unmarked)	0.57	–

Structure (SMILES)	EC50 [1] [µM]	further results
COc1cc2sc(C(=O)CC(C)C(=O)O)nc2c2cc(C)oc12 (centres unmarked)	2.34	–
COc1cc2sc(C(=O)C[C@H](C)C(=O)O)nc2c2nc(C)oc12	4.18	–
COc1cc2sc(C(=O)C[C@@H](C)C(=O)O)nc2c2nc(C)oc12	67.7	–
CCC(CC(=O)c1cc2c(cc(OC)c3oc(F)cc32)s1)C(=O)O (centres unmarked)	0.823	–
COc1cc2sc(C(=O)C[C@@H](C)C(=O)O)cc2c2cc(F)oc12	6.87	–
CC[C@@H](CC(=O)c1cc2c(cc(OC)c3oc(F)cc32)s1)C(=O)O	0.352	–
CC[C@H](CC(=O)c1cc2c(cc(OC)c3oc(F)cc32)s1)C(=O)O	4.1	–
[2H]c1c(C)oc2c(OC)cc3sc(C(=O)C[C@H](C)C(=O)O)cc3c12	0.313	–
COc1cc2sc(C(=O)C[C@@H](C)C(=O)O)cc2c2c(F)c(C)oc12	1.51	–
[2H]C([2H])([2H])Oc1cc2sc(C(=O)C[C@H](C)C(=O)O)cc2c2cc(F)oc12	0.263	–
C[C@@H](CC(=O)c1cc2c(cc(O)c3oc(F)cc32)s1)C(=O)O	29.3	–
COc1cc2sc(C(=O)CCC(=O)O)cc2c2ncoc12 [Compound 1, 4-(4-methoxythieno[2′,3′:5,6]benzo[1,2-d]oxazol-7-yl)-4-oxobutanoic acid]	–	AUC(0-t) ([2]; iv, 2 mg/kg): 660 ng·h/mL; Vd ([2]; iv, 2 mg/kg): 0.76 L/kg; clearance ([2]; iv, 2 mg/kg): 50.3 mL/min/kg; half-life ([2]; iv, 2 mg/kg): 0.658 h; AUC(0-t) ([2]; po, 5 mg/kg): 757 ng·h/mL; Cmax ([2]; po, 5 mg/kg): 1270 ng/mL; bioavailability ([2]; po, 5 mg/kg): 47%; half-life ([2]; po, 5 mg/kg): 1.56 h
COc1cc2sc(C(=O)C[C@H](C)C(=O)O)cc2c2c(F)c(C)oc12 [Compound 59]	–	AUC(0-t) ([2]; iv, 2 mg/kg): 5500 ng·h/mL; Vd ([2]; iv, 2 mg/kg): 0.191 L/kg; clearance ([2]; iv, 2 mg/kg): 6.03 mL/min/kg; half-life ([2]; iv, 2 mg/kg): 2.35 h; AUC(0-t) ([2]; po, 5 mg/kg): 5180 ng·h/mL; Cmax ([2]; po, 5 mg/kg): 7700 ng/mL; bioavailability ([2]; po, 5 mg/kg): 38%; half-life ([2]; po, 5 mg/kg): 1.1 h; clearance in vivo compared to MAS-2 [2, 3]: lower clearance; exposure in vivo compared to MAS-2 [2, 3]: higher exposure
COc1cc2sc(C(=O)CCC(=O)O)cc2c2nc(C)oc12 [Example 6, 4-(4-methoxy-2-methylthieno[2′,3′:5,6]benzo[1,2-d]oxazol-7-yl)-4-oxobutanoic acid]	–	AUC(0-t) ([2]; iv, 2 mg/kg): 4240 ng·h/mL; Vd ([2]; iv, 2 mg/kg): 0.264 L/kg; clearance ([2]; iv, 2 mg/kg): 7.85 mL/min/kg; half-life ([2]; iv, 2 mg/kg): 1.11 h; AUC(0-t) ([2]; po, 5 mg/kg): 3680 ng·h/mL; Cmax ([2]; po, 5 mg/kg): 4280 ng/mL; bioavailability ([2]; po, 5 mg/kg): 42.5%; half-life ([2]; po, 5 mg/kg): 2.64 h
COc1cc2sc(C(=O)CCC(=O)O)cc2c2ncoc12 [drawing 622]	1.23	–
COc1cc2sc(C(=O)CCC(=O)O)cc2c2nc(C)oc12 [drawing 626]	1.58	–
COc1cc2sc(C(=O)CC(C)C(=O)O)cc2c2ncoc12 (centres unmarked) [drawing 631]	1.12	–
COc1cc2sc(C(=O)C[C@H](C)C(=O)O)cc2c2ncoc12 [drawing 651]	0.16	–
CC[C@@H](CC(=O)c1cc2c(cc(OC)c3ocnc32)s1)C(=O)O [drawing 659]	0.302	–
COc1cc2sc(C(=O)C[C@H](C)C(=O)O)cc2c2cc(C)oc12 [drawing 660]	0.341	–
COc1cc2sc(C(=O)C[C@H](C)C(=O)O)cc2c2cc(F)oc12 [drawing 673]	0.465	–
COc1cc2sc(C(=O)C[C@H](C)C(=O)O)cc2c2c(F)c(C)oc12 [drawing 678]	0.19	–
